This is an account of results in publication PMC3462775 (PLoS ONE, 2012).

One test relates to S.aureus ATCC 29213. Nature of the test: MIC, standard microdilution assay. The format is cell-based, Staphylococcus aureus. Particulars: Reference strain, wild type; CLSI microdilution, cation-supplemented Mueller-Hinton broth, 5x10^4 CFU/well, 18–20 h at 37°C, triplicate. The method, then: (§1) MICs were determined using a standard microdilution assay as recommended by the Clinical and Laboratory Standards Institute. Assays were performed in triplicate using cation-supplemented Mueller-Hinton (MH) broth (Becton Dickinson, Franklin Lakes, NJ, USA) and a bacterial inoculum of 5x10^4 CFU/well, in a final volume of 100 µl. The tested concentrations ranged from 0.1 µM to 24 µM for both peptides. Results were recorded after 18–20 h of incubation at 37°C.
In general terms: Broth dilution looks for growth in wells or tubes with falling amounts of substance.

Another test relates to K.pneumoniae 7086042. The class given is cell-based, Klebsiella pneumoniae. The method, then: as §1
Test [1] concerns E. coli ATCC 25922 biofilm. The format is cell-based, Escherichia coli. Particulars: ATCC 25922, 20 h. The method, then:
Biofilm formation was performed by adapting the procedure described in [39] using the Calgary Biofilm Device (Innovotech, Innovotech Inc. Edmonton, Canada). Briefly, 96-well plates containing the bacterial inoculum were sealed with lids bearing 96 pegs on which the biofilm could build up. The plates were placed in an orbital incubator at 35°C (for P. aeruginosa and E. coli) or 37°C (for S. aureus) for 20 h under agitation at 125 rpm. Once biofilms formed, the lids were removed from the plates and the pegs were rinsed twice with phosphate buffered saline (PBS) to remove planktonic cells. The peg-lid was then transferred to a 96-well challenge microtiter plate, each well containing 200 µl of a twofold serial dilution of each peptide in LB medium. The challenge plate was incubated at 37°C for 2 hours. Peptide activity on pre-formed biofilm was evaluated by two independent methods: (i) visual observation of bacterial growth and (ii) counting of living bacterial cells after peptide treatment. In the first case, the peg-lid was removed from the challenge plate, rinsed with PBS and used to cover a 96-well recovery microtiter plate, each well containing 200 µl LB medium. The recovery plate was sealed, incubated at 37°C for 4 hours and then observed for any visible growth of bacteria detached from the peptide-treated biofilm. […]

A further test concerns K.pneumoniae ATCC 13833. Kind of test: MIC, standard microdilution assay. The class given is cell-based, Klebsiella pneumoniae. Particulars: Reference strain, wild type; CLSI microdilution, cation-supplemented Mueller-Hinton broth, 5x10^4 CFU/well, 18–20 h at 37°C, triplicate. The method, then:
as §1

The subject of test [2] is E. coli ATCC 25922 biofilm. The class given is cell-based, Escherichia coli. The conditions noted are these: ATCC 25922, 2 h. The method, then:
Biofilm formation was performed by adapting the procedure described in [39] using the Calgary Biofilm Device (Innovotech, Innovotech Inc. Edmonton, Canada). Briefly, 96-well plates containing the bacterial inoculum were sealed with lids bearing 96 pegs on which the biofilm could build up. The plates were placed in an orbital incubator at 35°C (for P. aeruginosa and E. coli) or 37°C (for S. aureus) for 20 h under agitation at 125 rpm. Once biofilms formed, the lids were removed from the plates and the pegs were rinsed twice with phosphate buffered saline (PBS) to remove planktonic cells. The peg-lid was then transferred to a 96-well challenge microtiter plate, each well containing 200 µl of a twofold serial dilution of each peptide in LB medium. The challenge plate was incubated at 37°C for 2 hours. Peptide activity on pre-formed biofilm was evaluated by two independent methods: (i) visual observation of bacterial growth and (ii) counting of living bacterial cells after peptide treatment. In the first case, the peg-lid was removed from the challenge plate, rinsed with PBS and used to cover a 96-well recovery microtiter plate, each well containing 200 µl LB medium. […] Colony forming units (CFU) were expressed as percentage with respect to control (peptide-untreated biofilms). […]

The next test concerns S. aureus USA300. Kind of test: In vivo anti-MRSA activity, lethal i.p. infection of mice. Particulars: Balb-c mice (20 g), groups of 5, i.p. LD100 (1×10^6) S. aureus USA 300 in 7% mucin, single i.p. peptide 25 mg/kg 30 min later; for survival: after 7 days. The method, then: The smallest number of bacteria causing 100% lethal infection (LD100) after intra-peritoneal (i.p.) injection was 1×10^6 in the presence of 7% mucin. An LD100 killed mice within 20 hours. Mice were infected with the LD100 of bacteria and treated i.p. with the peptides 30 minutes later.
Figure 4 In vivo antibacterial activity of tetrabranched M33-L and M33-D peptides. Balb-c mice (20 g) were injected i.p. with a lethal amount of S. aureus USA300 cells. Dashed line (Ctr), injection with bacteria and no peptides; dotted line, injection with bacteria and a single injection of M33-L peptide (25 mg/kg) 30 min later; continuous line, injection with bacteria and a single injection of M33-D peptide (25 mg/kg) 30 min later.
Animal procedures were approved by the Ethical Committee of the Azienda Ospedaliera Universitaria Senese on November 18, 2010. Balb-c mice (20 g) were infected i.p. with lethal amounts of bacteria (see results) mixed in 500 µl PBS +7% mucin (mucin from porcine stomach, type II, Sigma-Aldrich). Bacteria were cultured overnight, centrifuged, mixed in sterile PBS, and measured by spectrophotometer. Possible further dilutions in PBS were sometimes necessary to obtain the right amount of bacteria. Groups consisted of 5 animals. Moribund animals were killed humanely to avoid unnecessary distress. Surviving mice were monitored for 7 days. Thirty minutes after bacterial administration, peptides were inoculated i.p. with 0.5 ml PBS solution containing the indicated amount of peptide (see Results). Control animals received only PBS. P values were calculated using GraphPad Prism software.

Test [3] concerns S. aureus ATCC 25923 biofilm. The class given is cell-based, Staphylococcus aureus. The conditions noted are these: for Minimum biofilm eradication concentration (MBEC): ATCC 25923, 20 h. The method, then:
Biofilm formation was performed by adapting the procedure described in [39] using the Calgary Biofilm Device (Innovotech, Innovotech Inc. Edmonton, Canada). Briefly, 96-well plates containing the bacterial inoculum were sealed with lids bearing 96 pegs on which the biofilm could build up. The plates were placed in an orbital incubator at 35°C (for P. aeruginosa and E. coli) or 37°C (for S. aureus) for 20 h under agitation at 125 rpm. Once biofilms formed, the lids were removed from the plates and the pegs were rinsed twice with phosphate buffered saline (PBS) to remove planktonic cells. The peg-lid was then transferred to a 96-well challenge microtiter plate, each well containing 200 µl of a twofold serial dilution of each peptide in LB medium. The challenge plate was incubated at 37°C for 2 hours. Peptide activity on pre-formed biofilm was evaluated by two independent methods: (i) visual observation of bacterial growth and (ii) counting of living bacterial cells after peptide treatment. In the first case, the peg-lid was removed from the challenge plate, rinsed with PBS and used to cover a 96-well recovery microtiter plate, each well containing 200 µl LB medium. The recovery plate was sealed, incubated at 37°C for 4 hours and then observed for any visible growth of bacteria detached from the peptide-treated biofilm. Growth of bacteria in a particular well indicated regrowth of planktonic cells from surviving biofilm. Minimum biofilm eradication concentration (MBEC) was defined as the minimum peptide concentration preventing regrowth of bacteria from the treated biofilm within 4 hours.

In brackets after ≈: the same amount, converted by molar mass. Bridge positions count the residues as written; N and C are the ends. Square brackets hold non-standard residues; d marks the D form. Peptide text beside a SMILES is read from it. I, II: the chains in the order shown. βAla = NCCC(=O)O

The term MIC denotes the smallest concentration in the dilution series that meets the test's criterion for growth inhibition. Consider `CC[C@@H](C)[C@@H](NC(=O)[C@@H](CCCCN)NC(=O)[C@H](N)CCCCN)C(=O)N[C@H](CCCNC(=N)N)C(=O)N[C@@H](C(=O)N[C@H](CCCNC(=N)N)C(=O)N[C@H](CC(C)C)C(=O)N[C@H](CO)C(=O)N[C@H](C)C(=O)NCCCC[C@H](NC(=O)[C@@H](C)NC(=O)[C@@H](CO)NC(=O)[C@@H](CC(C)C)NC(=O)[C@@H](CCCNC(=N)N)NC(=O)[C@H](NC(=O)[C@@H](CCCNC(=N)N)NC(=O)[C@H](NC(=O)[C@@H](CCCCN)NC(=O)[C@H](N)CCCCN)[C@H](C)CC)C(C)C)C(=O)NCCCC[C@H](NC(=O)[C@H](CCCCNC(=O)[C@@H](C)NC(=O)[C@@H](CO)NC(=O)[C@@H](CC(C)C)NC(=O)[C@@H](CCCNC(=N)N)NC(=O)[C@H](NC(=O)[C@@H](CCCNC(=N)N)NC(=O)[C@H](NC(=O)[C@@H](CCCCN)NC(=O)[C@H](N)CCCCN)[C@H](C)CC)C(C)C)NC(=O)[C@@H](C)NC(=O)[C@@H](CO)NC(=O)[C@@H](CC(C)C)NC(=O)[C@@H](CCCNC(=N)N)NC(=O)[C@H](NC(=O)[C@@H](CCCNC(=N)N)NC(=O)[C@H](NC(=O)[C@@H](CCCCN)NC(=O)[C@H](N)CCCCN)[C@H](C)CC)C(C)C)C(=O)NCCC(=O)O)C(C)C` [M33-D] (I: H-[dK][dK][dI][dR][dV][dR][dL][dS][dA]KK[βAla]-OH / II: H-[dK][dK][dI][dR][dV][dR][dL][dS][dA]K / III: H-[dK][dK][dI][dR][dV][dR][dL][dS][dA] / IV: H-[dK][dK][dI][dR][dV][dR][dL][dS][dA]; amide I:10-IV:C, I:11-II:C, II:10-III:C; N-terminus assumed), for which the values for the minimum inhibitory concentration (MIC) against S.aureus ATCC 29213, in the test with K.pneumoniae 7086042 and with K.pneumoniae ATCC 13833 were 1.5 µM (≈ 7.02 µg/mL), 6 µM (≈ 28.1 µg/mL) and 3 µM (≈ 14 µg/mL), respectively. Also, the “Minimum biofilm eradication concentration (MBEC)” value in test [1] was 3 µM; in test [3] it was 1.5 µM. Moreover, in test [2], the “Minimum bactericidal concentration on biofilm (MBCb)” value was found to be 6 µM (≈ 28.1 µg/mL). The survival in the test on S. aureus USA300 amounted to 100%.

With `CC[C@H](C)[C@H](NC(=O)[C@H](CCCCN)NC(=O)[C@@H](N)CCCCN)C(=O)N[C@@H](CCCNC(=N)N)C(=O)N[C@H](C(=O)N[C@@H](CCCNC(=N)N)C(=O)N[C@@H](CC(C)C)C(=O)N[C@@H](CO)C(=O)N[C@@H](C)C(=O)NCCCC[C@H](NC(=O)[C@H](C)NC(=O)[C@H](CO)NC(=O)[C@H](CC(C)C)NC(=O)[C@H](CCCNC(=N)N)NC(=O)[C@@H](NC(=O)[C@H](CCCNC(=N)N)NC(=O)[C@@H](NC(=O)[C@H](CCCCN)NC(=O)[C@@H](N)CCCCN)[C@@H](C)CC)C(C)C)C(=O)NCCCC[C@H](NC(=O)[C@H](CCCCNC(=O)[C@H](C)NC(=O)[C@H](CO)NC(=O)[C@H](CC(C)C)NC(=O)[C@H](CCCNC(=N)N)NC(=O)[C@@H](NC(=O)[C@H](CCCNC(=N)N)NC(=O)[C@@H](NC(=O)[C@H](CCCCN)NC(=O)[C@@H](N)CCCCN)[C@@H](C)CC)C(C)C)NC(=O)[C@H](C)NC(=O)[C@H](CO)NC(=O)[C@H](CC(C)C)NC(=O)[C@H](CCCNC(=N)N)NC(=O)[C@@H](NC(=O)[C@H](CCCNC(=N)N)NC(=O)[C@@H](NC(=O)[C@H](CCCCN)NC(=O)[C@@H](N)CCCCN)[C@@H](C)CC)C(C)C)C(=O)NCCC(=O)O)C(C)C` [M33-L] (I: H-KKIRVRLSAKK[βAla]-OH / II: H-KKIRVRLSAK / III: H-KKIRVRLSA / IV: H-KKIRVRLSA; amide I:10-IV:C, I:11-II:C, II:10-III:C; N-terminus assumed), the minimum inhibitory concentration (MIC) in the test on S.aureus ATCC 29213 is 6 µM (≈ 28.1 µg/mL); in the test on K.pneumoniae 7086042, 3 µM (≈ 14 µg/mL); against K.pneumoniae ATCC 13833, 1.5 µM (≈ 7.02 µg/mL). The “Minimum biofilm eradication concentration (MBEC)” value in test [1] is listed as 3 µM; in test [3], 12 µM. Also, the “Minimum bactericidal concentration on biofilm (MBCb)” value in test [2] came to 6 µM (≈ 28.1 µg/mL). In addition, the “mortality (in words)” value with S. aureus USA300 was “mortality overlapping that of controls”. In the test with S. aureus USA300, the survival is listed as 0%. Also, the “activity in biofilm eradication experiments with respect to M33-D” value in test [3] (S. aureus biofilm eradication, relative to M33-D) came to 12%.
